The values that follow are results of earlier work, collected in patent US20080195230A1, “Pericardial tissue sheet” (priority 2007, published 2008).

The subject of data set [1] is 3T3 fibroblasts. The conditions noted are these: in vitro.
The test system of data set [2] is Chinese hamster ovary (CHO-K1) cells. To be noted: in vitro.
For data set [3], the system named is rabbit. The conditions noted are these: i.v.

Turning to `COC(=O)C1=CO[C@@H](O)[C@@H]2C(CO)=CC[C@H]12` [genipin], the “cytotoxicity compared with glutaraldehyde” value in data set [1] was “substantially less cytotoxic than glutaraldehyde”. Besides, the “genotoxicity (clastogenic response)” value in data set [2] was “does not cause clastogenic response”.
What is called LD50 is the dose at which mortality reaches 50%. On to Deoxycholic acid, for which the LD50 in data set [3] is 15 mg/kg. Further, for the setting “alcohol, acetic acid, acetone”, the “solubility in organic solvents” value was “soluble in alcohol and to a lesser extent acetone and glacial acetic acid”. Also, the solubility in water entry (water) is reported as “sparingly soluble in water”.
